Reference: article PMC13185115, “Photovermellogens: Minimalistic Pyridinium-Based Acylhydrazones with Photoswitchable Basicity for Operation in Aqueous Media” (The Journal of Organic Chemistry, 2026)

Tests used:
[1] = Photoisomerization kinetics and quantum yields of the protonated forms (UV-vis); format: physicochemical; details: for k E-PH+ to Z-PH+ photoisomerization: pH 6 (pH 5 for P bH·Cl); for Φ Z→E photoisomerization quantum yield: irradiation at 440 nm
From the text: Photoisomerization studies were subsequently carried out in acidic medium (pH = pK a – 2) in order to assess the photoresponse of the protonated species. Under these conditions, the anticipated photoisomerization of the thermally stable E-P a–dH^+ species was investigated by UV–vis absorption spectroscopy under irradiation at 254 nm. […] It is noteworthy that the irradiation wavelength can be extended to 365 nm, yielding virtually the same observations as for 254 nm irradiation (see footnotes of Table ). Irradiation also produced clear NMR spectral changes that support the occurrence of the E→Z isomerization. In essence, the signals Hf–h of the phenyl moiety were only slightly affected, whereas those of the pyridinium and acylhydrazone fragments shifted markedly, consistent with the formation of an intramolecular hydrogen bond in the Z-P a–cH^+ species. The reverse Z→E transformation of the protonated forms P a–cH^+ was also achieved upon irradiation at λ > 420 nm, giving lower quantum yields and less favorable PSDs (Figures S145–S147, S149–154, S1).
5. Isomerization Photochemical Data.
5.1. E-P a-cH+→Z-P a-cH+ photoisomerization kinetics.
(§1) Figure S138. Left: variations in the absorption spectrum of P aH·Cl (20.6 µM, pH = 6) upon irradiation at 254 nm; the absorption spectrum of the E-form is shown in red; the photostationary state is in blue. Right: Kinetics (monitored at 320 nm) for the E-P aH+ to Z-P aH+ photoisomerization (20.6 µM) upon irradiation at 254 nm (I 0 = 1.37 × 10 –7 mol/s); k = 1.55 × 10 –2 […]
as §1, with “S139.” for “S138.”, “(17.5” for “(20.6”, “365” for “254”, “400” for “320”, “2.6” for “1.37”, “6.4” for “1.55”
Figure S140. Left: variations in the absorption spectrum of P bH·Cl (7.9 µM, pH = 5) upon […]
state is in blue. Right: Kinetics (monitored at 370 nm) for the E-P bH+ to Z-P bH+ photoisomerization (7.9 µM) upon irradiation at 254 nm (I 0 = 1.41 × 10 –7 mol/s); k = 4.91 × 10 –2 […]
Figure S141. Left: variations in the absorption spectrum of P bH·Cl (10 µM, pH = 5) upon […]
state is in blue. Right: Kinetics (monitored at 420 nm) for the E-P bH+ to Z-P bH+ photoisomerization (10 µM) upon irradiation at 365 nm (I 0 = 2.0 × 10 –7 mol/s); k = 3.0 × 10 –2 s–1.
Figure S142. Left: variations in the absorption spectrum of P cH·Cl (9 µM, pH = 6) upon […]
state is in blue. Right: Kinetics (monitored at 377 nm) of the E-P cH+ to Z-P cH+ photoisomerization […]
Figure S143. Left: variations in the absorption spectrum of P cH·Cl (10 µM, pH = 6) upon […]
state is in blue. Right: Kinetics (monitored at 410 nm) of the E-P cH+ to Z-P cH+ photoisomerization

[2] = pKa determination for the photostationary state (Z-enriched) by UV-Vis spectroscopy; format: physicochemical; details: apparent acidity constant of the cationic Z form as present in the photostationary state (88–97% Z) after 254 nm irradiation; water
From the text: Having confirmed the photochemical behavior of the protonated forms, we next explored their light-responsiveness in the deprotonated state. […] To probe whether Z-P a–c could nonetheless be generated indirectly, we explored a consecutive photoisomerization–deprotonation sequence. Thus, E-P a–cH^+ was first irradiated at 254 nm and pH 6 to enrich the Z population, followed by immediate adjustment of the solution to pH 13. Under these conditions, transient spectroscopic features were observed, consistent with the kinetic trapping of the metastable Z-P a–c species. […] These spectroscopic observations enabled the estimation of virtual pK a values for the Z-enriched solutions (Table and Figures S163–168, SI1), which confirmed the reduced acidity of the NH group in the Z-isomers, presumably arising from intramolecular hydrogen-bond formation.
6. Determination of pK a values for the PSS by UV-Vis spectroscopy.
The concentration of P a-cH·Cl was kept constant at appropriate values in the 10-20 µM range, and that of the phosphate buffer at 20 mM. The absorption measurements of the corresponding air-equilibrated phosphate buffered aqueous solutions were carried out at room temperature (298 K), in quartz cuvettes with 1 cm optical pathlength. For the kinetic trapping of the deprotonated Z-isomers of P a-cH·Cl, a solution of the corresponding salt in phosphate buffered solution at a conveniently acidic pH/pD was irradiated at 254 nm until reaching the PSS. Then, the pH of the solution was in each case adjusted to the required final value, by addition of 40 mM stock solutions of phosphate buffer of the required composition. The reported measurements were done as fast as possible to minimize thermal back-isomerization.

[3] = irradiation at 254 nm (I0 1.37–1.41 × 10–7 mol/s)
[4] = irradiation at 254 nm, pH 6, error ± 20%
[5] = irradiation at 365 nm (I0 2.0–2.6 × 10–7 mol/s)

| Compound | k E-PH+ to Z-PH+ photoisomerization [1, 3] | Φ E→Z photoisomerization quantum yield [1, 4] | Φ E→Z photoisomerization quantum yield ([1]; irradiation at 365 nm) | k E-PH+ to Z-PH+ photoisomerization [1, 5] | Φ Z→E photoisomerization quantum yield ([1]; pH 6, error ± 20%) | pK a (PSD) [2] | E→Z photoisomerization of the protonated form (UV-vis changes) ([1]; irradiation at 254 nm, acidic medium pH = pKa – 2) |
| --- | --- | --- | --- | --- | --- | --- | --- |
| C[n+]1ccc(NN=CC(=O)c2ccccc2)c2ccccc21 [P bH^+] | 4.91 10^–2 s^–1 | 0.38 | 0.35 | 3.0 10^–2 s^–1 | 0.002 | 8.8 ± 0.2 |  |
| O=C(C=NNc1cc[n+](-c2ccccc2)cc1)c1ccccc1 [P cH^+] | 4.90 10^–2 s^–1 | 0.34 | 0.34 | 2.0 10^–2 s^–1 | 0.008 | 9.9 ± 0.1 |  |
| C[n+]1ccc(-c2ccc(NN=CC(=O)c3ccccc3)cc2)cc1 [P dH^+] |  |  |  |  |  |  | no detectable changes |
| C[n+]1ccc(NN=CC(=O)c2ccccc2)cc1 [P aH^+] | 1.55 10^–2 s^–1 | 0.20 | 0.22 | 6.4 10^–2 s^–1 | 0.001 | 10.4 ± 0.2 |  |
